Laboratory results taken from patent publication EP0307077A1, “Tetrahydrocarbazoles for the improvement of cyclosporin therapy” (MERCK FROSST CANADA INC., priority 1987, dated 1989).

What was measured:
[1] = system: female spontaneously hypertensive (SHR) rats; assay: Cyclosporine A-induced nephrotoxicity, 14 days dosing, serum BUN (Example 63); type: in vivo
Method: All experiments were carried out using female spontaneously hypertensive (SHR) rats, weight range 160-200 gm, obtained from Taconic Farms. […] Three thromboxane antagonists have been studied. […] Thromboxane antagonists have been administered as the sodium salt dissolved in saline, the sodium salt dissolved in 0.1% NaHCO3 or the free acid suspended in 1% Methocel.

[2] = system: female spontaneously hypertensive (SHR) rats; assay: Cyclosporine A-induced nephrotoxicity, pilot study, 2 weeks dosing, serum BUN and creatinine (Example 64); type: in vivo; details: for Serum BUN / Serum Creatinine: 2 weeks, means ± S.E.M. (n = 8)
[3] = system: female spontaneously hypertensive (SHR) rats; assay: Cyclosporine A-induced nephrotoxicity, 5 week study, serum BUN, serum creatinine, creatinine clearance (Example 64); details: for Mean Serum BUN Values: Compound 63 (10 mg/kg/day) and Cyclosporine A; for Mean Serum Creatinine Levels: Compound 63 (10 mg/kg/day) and Cyclosporine
Method: Experiments were carried out using groups of 6 female spontaneously hypertensive (SHR) rats, weight range 166-194 gm, obtained form Taconic Farms. […] At weekly intervals form 2 weeks onwards, animals were placed in individual metabolism cages and 24 hr urin samples collected, the volume measured and the creatinine levels determined (Lakeshore Diagnostic Laboratories). Creatinine clearance per rat was calculated from the formula: [formula] where Ucr = concentration of creatine in urine • Per = concentration of creatinine in plasma • V = volume of urine flow in ml/min
After removal from the metabolism cage, a blood sample was taken from each rat for determination of serum BUN and creatinine (Lakeshore Diagnostic Laboratories). In a preliminary study, groups of 8 rats were dosed as above for 2 weeks only and serum samples removed for determination of BUN and creatinine as above.

[4] = system: rats; details: cyclosporine A nephrotoxicity model, Penico et al. 1986; cited from earlier work
[5] = Cyclosporine A and Compound 63 3 mg/kg/day
[6] = Cyclosporine A and Compound 63 10 mg/kg/day

SMILES: O=C(O)CC1CCCc2c1n(Cc1ccc(Cl)cc1)c1ccc(F)cc21 (racemic) [Compound 1, 9-p-chlorobenzyl-6-fluoro-1,2,3,4-tetrahydracarbazol-1-yl-acetic acid]
- inhibition of the increase in serum BUN ([1]; Table 1 (Experiment 1), 3 mg/kg/day in saline with cyclosporine A): significant inhibition

SMILES: CS(=O)(=O)c1ccc(Cn2c3c(c4cc(F)cc(F)c42)CCCC3CC(=O)O)cc1 (single isomer, unassigned) [Compound 63]
- reduction of the increase in serum BUN ([2]; 3 or 10 mg/kg/day with cyclosporine A, pilot study): significantly reduced the increase in serum BUN to control levels
- Serum BUN [2, 5]: 20.8 ± 1.0 mg/dL
- Serum Creatinine [2, 5]: 0.64 ± 0.02 mg/dL
- Serum BUN [2, 6]: 22.2 ± 0.7 mg/dL
- Serum Creatinine [2, 6]: 0.65 ± 0.04 mg/dL
- reduction of the increase in serum creatinine ([2]; higher dose (10 mg/kg/day) with cyclosporine A, pilot study, p = 0.07): failed to reach statistical significance
- reduction of the increase in serum creatinine ([2]; lower dose (3 mg/kg/day) with cyclosporine A, pilot study): significantly reduced the increase in serum creatinine
- Mean Serum BUN Values ([3]; week 2): 26.4 ± 0.9 mg/dL
- Mean Serum BUN Values ([3]; week 3): 22.3 ± 1.7 mg/dL
- Mean Serum BUN Values ([3]; week 4): 24.0 ± 1.4 mg/dL
- Mean Serum BUN Values ([3]; week 5): 21.0 ± 1.1 mg/dL
- Mean Serum Creatinine Levels ([3]; week 2): 0.51 ± 0.03 mg/dL
- Mean Serum Creatinine Levels ([3]; week 3): 0.44 ± 0.01 mg/dL
- Mean Serum Creatinine Levels ([3]; week 4): 0.54 ± 0.02 mg/dL
- Mean Serum Creatinine Levels ([3]; week 5): 0.42 ± 0.01 mg/dL
- prevention of cyclosporine A-induced changes (serum BUN, creatinine clearance) ([3]; cotreatment with Compound 63 (10 mg/kg/day), 5 week study): prevented
- cyclosporine A-induced nephrotoxicity ([3]; overall conclusion of Example 64): inhibits
- creatinine clearance, Compound 63 and cyclosporine A compared to cyclosporine A alone ([3]; week 3): significantly different
- creatinine clearance, Compound 63 and cyclosporine A compared to cyclosporine A alone ([3]; week 5, p = 0.07): just failed to reach statistical significance
- serum BUN, Compound 63 and cyclosporine A compared to cyclosporine A alone ([3]; weeks 3 and 5): significantly different

SMILES: O=C(O)CC1CCCc2c1n(Cc1ccc(Cl)cc1)c1c(F)cc(F)cc21 (single isomer, unassigned; (-)) [Compound 37, (-)-9 p-Chlorobenzyl-6,8-difluoro-1,2,3,4-tetrahydrocarbazol-1-yl-acetic acid]
- inhibition of the rise in serum BUN ([1]; both doses (3 and 10 mg/kg/day), suspension of the free acid, with cyclosporine A): significant inhibition

SMILES: CS(=O)(=O)c1ccc(Cn2c3c(c4cc(F)cc(F)c42)CCCC3CC(=O)O)cc1 (single isomer, unassigned; (-)) [Compound 50, (-)9-p-Methylsulfonylbenzyl-6,8-difluoro-1,2,3,4-tetrahydrocarbazol-1-yl acetic acid]
- effects on cyclosporine A-induced rises in serum BUN ([1]; both 3 and 10 mg/kg/day, suspension of the free acid (Table 4)): effective

SMILES: Cc1c(Cn2ccnc2)c2ccccc2n1CCC(=O)O [Uk-38,485]
- glomerular filtration rate [4]: increased
- urinary TxB2 [4]: reduced
